One data set has as its target T1, BMX (Homo sapiens, UniProt P51813).
T1 construct: purchased Reaction Biology Corporation
T1 sequence (P51813 1-675): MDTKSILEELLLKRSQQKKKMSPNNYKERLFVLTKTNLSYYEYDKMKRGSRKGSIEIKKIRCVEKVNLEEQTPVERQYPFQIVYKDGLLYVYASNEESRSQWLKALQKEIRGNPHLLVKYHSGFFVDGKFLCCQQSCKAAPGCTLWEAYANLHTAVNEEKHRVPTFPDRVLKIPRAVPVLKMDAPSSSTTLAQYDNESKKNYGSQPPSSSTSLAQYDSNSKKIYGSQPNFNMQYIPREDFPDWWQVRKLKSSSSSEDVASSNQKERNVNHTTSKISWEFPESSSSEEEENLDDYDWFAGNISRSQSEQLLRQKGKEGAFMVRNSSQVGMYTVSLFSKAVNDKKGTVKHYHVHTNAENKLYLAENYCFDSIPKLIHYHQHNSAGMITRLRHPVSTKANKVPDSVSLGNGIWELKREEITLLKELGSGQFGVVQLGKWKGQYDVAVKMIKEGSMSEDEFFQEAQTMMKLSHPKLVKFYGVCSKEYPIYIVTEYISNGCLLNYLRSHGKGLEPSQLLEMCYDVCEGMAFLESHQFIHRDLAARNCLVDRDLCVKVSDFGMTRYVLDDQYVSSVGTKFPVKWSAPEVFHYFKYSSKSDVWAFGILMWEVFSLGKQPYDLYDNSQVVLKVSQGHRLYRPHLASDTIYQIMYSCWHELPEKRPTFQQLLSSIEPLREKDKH
Kind of data set: HotSpot kinase enzymatic assay, BMX. It counts as biochemical. How it is done: Therefore, efforts have focused on developing new compounds with good selectivity profiles. […] Compound 8 was selective against BTK. The biochemical activities of compound 8 differed among TEC family kinases. […] The inhibitory potential of compound 8 differed between members of the EGFR family. […] The inhibitory activity of compound 8 against JAK3 was also low.
Kinase enzymatic assays for BTK, BMX, TXK, TEC, ITK, EGFR, ERBB2, ERBB4, and JAK3 were performed at Reaction Biology Corporation (www.reactionbiology.com, Malvern, PA, USA) using the HotSpot assay platform. Briefly, specific kinase/substrate pairs and the required cofactors were prepared in a reaction buffer comprising 20 mM HEPES (pH 7.5), 10 mM MgCl2, 1 mM EGTA, 0.02% Brij35, 0.02 mg/mL BSA, 0.1 mM Na3VO4, 2 mM DTT, and 1% DMSO. The compounds were added to the reaction mixture and allowed to incubate. Approximately 20 min later, a mixture of ATP (Sigma-Aldrich, St. Louis, MO, USA) and ^33P ATP (PerkinElmer, Waltham, MA, USA) was added to the reaction mixture at a final concentration of 10 μM. The reactions were performed at room temperature for 120 min; subsequently, the reactions were spotted onto P81 ion exchange filter papers (Whatman Inc., Maidstone, UK). Any unbound phosphate was removed by thoroughly washing the filter papers with 0.75% phosphoric acid. […]

For the next data set, the target named is T2, CYP1A2 (Homo sapiens, UniProt P05177).
T2 construct: purchased Promega V9770
T2 sequence (P05177 1-516): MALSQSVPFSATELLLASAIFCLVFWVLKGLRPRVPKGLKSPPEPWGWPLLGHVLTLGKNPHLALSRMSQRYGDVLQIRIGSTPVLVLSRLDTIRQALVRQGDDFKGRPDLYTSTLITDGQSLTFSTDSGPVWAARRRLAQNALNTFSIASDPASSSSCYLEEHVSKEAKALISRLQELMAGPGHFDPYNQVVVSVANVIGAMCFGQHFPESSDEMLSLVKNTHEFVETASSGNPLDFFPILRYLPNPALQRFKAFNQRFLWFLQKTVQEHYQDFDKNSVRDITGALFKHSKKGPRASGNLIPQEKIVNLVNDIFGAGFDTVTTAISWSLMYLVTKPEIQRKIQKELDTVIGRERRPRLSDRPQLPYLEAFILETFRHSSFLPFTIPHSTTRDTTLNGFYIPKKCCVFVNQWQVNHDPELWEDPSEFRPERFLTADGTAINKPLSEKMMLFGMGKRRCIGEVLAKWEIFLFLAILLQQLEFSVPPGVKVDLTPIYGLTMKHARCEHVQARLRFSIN
The data set can be described thus: P450-Glo CYP inhibition assay, CYP1A2. It counts as in vitro ADME. How it is done:
(§1) The potential for CYP450 inhibition (CYP1A2, 2C9, 2C19, 2D6, and […]) was assessed using Promega P450-Glo^TM CYP450 assay systems. Luciferin-ME served as the substrate for CYP1A2, and the inhibitor α-naphthoflavone was used as a positive control. Luciferin-H was used as the substrate for CYP2C9, and the inhibitor sulfaphenazole was used as a positive control. Luciferin-H EGE was selected as the substrate for CYP2C19, whereas the inhibitor amitriptyline served as a positive control. Luciferin-ME EGE was used as the substrate for CYP2D6, whereas the inhibitor quinidine served as a positive control. Luciferin-BE was used as the substrate for CYP3A4, whereas the inhibitor ketoconazole was used as a positive control. The assays were performed using the excitation and emission wavelengths recommended by the manufacturer. Briefly, a CYP enzyme and a P450-Glo™ substrate were combined in potassium phosphate (0.1 M KPO4) buffer, with or without a test compound of interest, and […]. The reaction was initiated by adding two volumes of 2 times concentrated NADPH regeneration system. […] Luminescence was subsequently measured using a Tecan Infinite M1000 PRO microplate reader (Tecan Group Ltd., Switzerland). The percent inhibition was calculated relative to that of the positive control at a fixed concentration. […]

For the next data set, the target named is T3, CYP2C9 (Homo sapiens, UniProt P11712).
T3 construct: purchased Promega V9790
T3 sequence (P11712 whole entry): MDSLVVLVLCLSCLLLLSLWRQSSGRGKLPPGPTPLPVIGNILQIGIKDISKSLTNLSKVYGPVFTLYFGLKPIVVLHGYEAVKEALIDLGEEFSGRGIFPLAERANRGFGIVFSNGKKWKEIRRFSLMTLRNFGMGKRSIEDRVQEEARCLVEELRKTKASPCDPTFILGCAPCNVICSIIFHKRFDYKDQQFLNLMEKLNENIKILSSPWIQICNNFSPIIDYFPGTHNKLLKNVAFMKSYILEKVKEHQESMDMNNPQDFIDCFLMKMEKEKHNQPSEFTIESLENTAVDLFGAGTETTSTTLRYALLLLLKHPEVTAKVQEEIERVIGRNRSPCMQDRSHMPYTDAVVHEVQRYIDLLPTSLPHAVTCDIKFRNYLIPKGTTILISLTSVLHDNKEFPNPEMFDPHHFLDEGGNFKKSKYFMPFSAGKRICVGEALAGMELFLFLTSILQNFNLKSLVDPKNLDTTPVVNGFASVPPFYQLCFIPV
Kind of data set: P450-Glo CYP inhibition assay, CYP2C9. It is filed as in vitro ADME. Here is the method:
as §1

For the next data set, the target named is T4, CYP3A4 (Homo sapiens, UniProt P08684).
T4 construct: purchased Promega V9920
T4 sequence (P08684 whole entry): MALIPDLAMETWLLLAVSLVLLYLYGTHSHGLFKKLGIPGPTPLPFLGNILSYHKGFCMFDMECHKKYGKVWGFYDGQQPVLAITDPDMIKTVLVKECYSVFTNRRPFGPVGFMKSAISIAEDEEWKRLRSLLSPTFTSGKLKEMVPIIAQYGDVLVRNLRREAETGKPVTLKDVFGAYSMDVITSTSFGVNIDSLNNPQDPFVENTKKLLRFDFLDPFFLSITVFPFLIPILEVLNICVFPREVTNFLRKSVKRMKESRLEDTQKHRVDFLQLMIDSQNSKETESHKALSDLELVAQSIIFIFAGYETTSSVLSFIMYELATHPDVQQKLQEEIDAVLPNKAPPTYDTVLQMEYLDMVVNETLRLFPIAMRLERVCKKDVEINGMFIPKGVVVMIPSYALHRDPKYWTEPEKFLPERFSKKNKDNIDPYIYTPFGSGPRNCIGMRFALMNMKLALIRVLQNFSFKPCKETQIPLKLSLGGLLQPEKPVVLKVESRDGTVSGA
The data set can be described thus: P450-Glo CYP inhibition assay, CYP3A4. It is filed as in vitro ADME. Here is the method:
as §1

The mark [1] stands for this setting: % inhibition of human CYP isozymes at 10 μM.

What is called inhibition is how much of the control response was suppressed. A high value points to a strong effect. Take `C=CC(=O)O[C@H]1Cc2cc3ccc(=O)oc3cc2OC1(C)C` [Compound 8, (7S)-(+)-Acrylic acid, 8,8-dimethyl-2-oxo-6,7-dihydro-2H,8H-pyrano [3,2-g]chromen-7-yl ester]: the “inhibitory activity against BMX (in words)” value on BMX is on record as “strong inhibitory activity”. In addition, the inhibition at 10 µM against BMX (10 µM, mean of two experiments) is 95.4%. Further, the “CYP1A2 inhibition (in words)” value on CYP1A2 is “rarely inhibited”. Moreover, on CYP1A2 (setting [1]), the “CYP inhibition 1A2” value was under 1%. Moreover, at CYP2C9, the “CYP2C9 inhibition (in words)” value was “moderately inhibited”. Moreover, on CYP2C9 (setting [1]), the “CYP inhibition 2C9” value is reported as 66.1%. The “CYP3A4 inhibition (in words)” value on CYP3A4 is on record as “rarely inhibited”. The “CYP inhibition 3A4” value on CYP3A4 (setting [1]) is under 1%.

The values above are taken from PMC7663272, “Discovery of Tricyclic Pyranochromenone as Novel Bruton’s Tyrosine Kinase Inhibitors with In Vivo Antirheumatic Activity” (International Journal of Molecular Sciences, 2020).
